Test results as given in patent publication US11400063B2, “Early administration of low-dose colchicine after myocardial infarction” (INSTITUT DE CARDIOLOGIE DE MONTREAL, priority 2019, dated 2022).

System: patients recruited within 30 days after a myocardial infarction
Test: COLCOT time-to-treatment initiation (TTI) analysis
Format: in vivo, human
Details: for All Coronary Revascularizations, HR (95% CI) / All-cause death, HR (95% CI) / MI, HR (95% CI) / Primary composite endpoint, HR (95% CI) / Resuscitated cardiac arrest, HR (95% CI) / Secondary Composite Endpoint, HR (95% CI) / Stroke, HR (95% CI) / Urgent hospitalization for angina requiring coronary revascularization, HR (95% CI) / Time to first positively adjudicated primary endpoint, HR (95% CI): colchicine vs. placebo
Method: The results of the COLCOT trial have been further analyzed to determine if time to treatment initiation (TTI) had any effect on the outcome of the treatment. Three different cutoffs for TTI were used in order to determine the association between early initiation of therapy and clinical outcomes. These cutoffs were determined based on the usual journey of patients with MI. The first 30-day post-MI timeline was divided into three independent periods of time, and analyzed as such: from day 0 to 3, referring to in-hospital management; from day 4 to 7, referring to early post-discharge period and from day 8 to 30, referring to late post-discharge period.
COLCOT was an international multicenter, randomized, double-blinded trial that randomly assigned patients to receive either low-dose colchicine (0.5 mg once daily) or placebo. The study protocol and main results have been published (see, Tardif et al., N Engl J Med 2019). […] Main exclusion criteria were severe heart failure, reduced left ventricular ejection fraction (<35%), recent stroke (<3 months), type 2 MI, recent (<3 years) or planned coronary artery bypass graft (CABG), history of cancer (<3 years), and inflammatory bowel disease or chronic diarrhea. All patients enrolled in the trial benefited from percutaneous coronary intervention whenever indicated and guidelines-directed management of CV disease prior to randomization (see. Tardif et al., N Engl J Med 2019).
The primary efficacy endpoint was a composite of CV death, resuscitated cardiac arrest, MI, stroke, or urgent hospitalization for angina requiring coronary revascularization. The secondary endpoints consisted of the components of the primary efficacy endpoint, all-cause death, and a composite of CV death, resuscitated cardiac arrest, MI, or stroke. Exploratory endpoints included all coronary revascularizations, including both elective and urgent coronary revascularizations.
Three different cutoffs for TTI were used in order to determine the association between early initiation of therapy and clinical outcomes. These cutoffs were determined based on the usual journey of patients with MI. The first 30-day post-MI timeline was divided into three independent periods of time, and analyzed as such: from day 0 to 3, referring to in-hospital management; from day 4 to 7, referring to early post-discharge period and from day 8 to 30, referring to late post-discharge period.
Both the TTI of less than 4 days and the TTI of less than 5 days was were calculated using a basic model (Table 4 and Table 6) as well as an adjusted model (Table 5 and Table 7) which is described below in the statistical analysis section. In all cases, the interaction p-value was not significant (p>0.05), meaning that the conclusion over Placebo vs. Colchicine group can be obtained directly from the respective p-values for HR. In other words, relationships within the placebo and colchicine groups with TTI are both linear/parallel and the interpretation is straightforward.
For the present TTI analysis, the data were centrally analyzed by an independent academic biostatistics center at the Montreal Health Innovations Coordinating Center. The analysis was conducted amongst patients who received at least one dose of the study medication (referred to as the safety population in the main protocol, FIG. 1). TTI was defined as the length of time in days between the index MI and the initiation of the study medication, and three specific cutoffs were analyzed ([…], days 4 to […]). Early initiation of therapy was defined as TTI≤3 days. Baseline characteristics were summarized using counts and percentages for categorical variables and mean±standard deviation (SD) for continuous variables. For each baseline characteristic, comparisons were made using ANOVA for continuous variables and Chi-Square test for categorical variables according to TTI strata. […]

[1] = TTI 0-3 days, listed as colchicine
[2] = delay between randomization and index MI [0-4] days
[3] = delay between randomization and index MI [0-5] days
[4] = delay between randomization and index MI [5-30] days
[5] = delay between randomization and index MI [6-30] days

COc1cc2c(c(OC)c1OC)-c1ccc(OC)c(=O)cc1[C@@H](NC(C)=O)CC2 [Colchicine, colchicine]
All Coronary Revascularizations, % of patients (TTI 0-3 days, N = 1193): 5.5%
All Coronary Revascularizations, no. of patients (TTI 0-3 days, N = 1193): 33 no.
All-cause death, % of patients (TTI 0-3 days, N = 1193): 1.0%
All-cause death, no. of patients (TTI 0-3 days, N = 1193): 6 no.
MI, % of patients (TTI 0-3 days, N = 1193): 2.8%
MI, no. of patients (TTI 0-3 days, N = 1193): 17 no.
Primary composite endpoint, % of patients (TTI 0-3 days, N = 1193): 4.3%
Primary composite endpoint, no. of patients (TTI 0-3 days, N = 1193): 26 no.
Resuscitated cardiac arrest, % of patients (TTI 0-3 days, N = 1193): 0.2%
Resuscitated cardiac arrest, no. of patients (TTI 0-3 days, N = 1193): 1 no.
Secondary Composite Endpoint, % of patients (TTI 0-3 days, N = 1193): 3.3%
Stroke, % of patients (TTI 0-3 days, N = 1193): 0.2%
Stroke, no. of patients (TTI 0-3 days, N = 1193): 1 no.
Urgent hospitalization for angina requiring coronary revascularization, % of patients (TTI 0-3 days, N = 1193): 1%
Urgent hospitalization for angina requiring coronary revascularization, no. of patients (TTI 0-3 days, N = 1193): 6 no.
Secondary Composite Endpoint, no. of patients (TTI 0-3 days, N = 1193, CV death, resuscitated cardiac arrest, MI or stroke): 20 no.
All Coronary Revascularizations, HR (95% CI) (TTI 0-3 days): 0.63 (0.40-0.97); p = 0.037
All-cause death, HR (95% CI) (TTI 0-3 days): 1.03 (0.33-3.19); p = 0.962
MI, HR (95% CI) (TTI 0-3 days): 0.58 (0.32-1.05); p = 0.071
Primary composite endpoint, HR (95% CI) (TTI 0-3 days): 0.52 (0.32-0.84); p = 0.007
Resuscitated cardiac arrest, HR (95% CI) (TTI 0-3 days): 0.33 (0.03-3.20); p = 0.340
Secondary Composite Endpoint, HR (95% CI) (TTI 0-3 days): 0.55 (0.32-0.95); p = 0.031
Stroke, HR (95% CI) (TTI 0-3 days): 0.21 (0.02-1.81); p = 0.156
Urgent hospitalization for angina requiring coronary revascularization, HR (95% CI) (TTI 0-3 days): 0.35 (0.14-0.88); p = 0.026
All Coronary Revascularizations, HR (95% CI) [1]: 0.63
All-cause death, HR (95% CI) [1]: 1.03
MI, HR (95% CI) [1]: 0.58
Primary composite endpoint, HR (95% CI) [1]: 0.52
Resuscitated cardiac arrest, HR (95% CI) [1]: 0.33
Secondary Composite Endpoint, HR (95% CI) [1]: 0.55
Stroke, HR (95% CI) [1]: 0.21
Urgent hospitalization for angina requiring coronary revascularization, HR (95% CI) [1]: 0.35
All Coronary Revascularizations, % of patients (TTI 4-7 days, N = 720): 6.9%
All Coronary Revascularizations, no. of patients (TTI 4-7 days, N = 720): 25 no.
All-cause death, % of patients (TTI 4-7 days, N = 720): 2.2%
All-cause death, no. of patients (TTI 4-7 days, N = 720): 8 no.
MI, % of patients (TTI 4-7 days, N = 720): 4.4%
MI, no. of patients (TTI 4-7 days, N = 720): 16 no.
Primary composite endpoint, % of patients (TTI 4-7 days, N = 720): 6.0%
Primary composite endpoint, no. of patients (TTI 4-7 days, N = 720): 22 no.
Resuscitated cardiac arrest, % of patients (TTI 4-7 days, N = 720): 0.5%
Resuscitated cardiac arrest, no. of patients (TTI 4-7 days, N = 720): 2 no.
Secondary Composite Endpoint, % of patients (TTI 4-7 days, N = 720): 4.9%
Secondary Composite Endpoint, no. of patients (TTI 4-7 days, N = 720): 18 no.
Stroke, % of patients (TTI 4-7 days, N = 720): 0.3%
Stroke, no. of patients (TTI 4-7 days, N = 720): 1 no.
Urgent hospitalization for angina requiring coronary revascularization, % of patients (TTI 4-7 days, N = 720): 1.1%
Urgent hospitalization for angina requiring coronary revascularization, no. of patients (TTI 4-7 days, N = 720): 4 no.
All Coronary Revascularizations, HR (95% CI) (TTI 4-7 days): 1.41 (0.76-2.61); p = 0.275
All-cause death, HR (95% CI) (TTI 4-7 days): 1.03 (0.37-2.84); p = 0.957
MI, HR (95% CI) (TTI 4-7 days): 1.67 (0.74-3.78); p = 0.218
Primary composite endpoint, HR (95% CI) (TTI 4-7 days): 0.96 (0.53-1.75); p = 0.896
Resuscitated cardiac arrest, HR (95% CI) (TTI 4-7 days): 1.90 (0.17-20.95); p = 0.600
Secondary Composite Endpoint, HR (95% CI) (TTI 4-7 days): 1.04 (0.53-2.03); p = 0.919
Stroke, HR (95% CI) (TTI 4-7 days): 0.28 (0.03-2.71); p = 0.272
Urgent hospitalization for angina requiring coronary revascularization, HR (95% CI) (TTI 4-7 days): 0.63 (0.18-2.24); p = 0.476
All Coronary Revascularizations, % of patients (TTI ≥ 8 days, N = 2748): 5.3%
All Coronary Revascularizations, no. of patients (TTI ≥ 8 days, N = 2748): 72 no.
All-cause death, % of patients (TTI ≥ 8 days, N = 2748): 1.9%
All-cause death, no. of patients (TTI ≥ 8 days, N = 2748): 26 no.
MI, % of patients (TTI ≥ 8 days, N = 2748): 3.8%
MI, no. of patients (TTI ≥ 8 days, N = 2748): 52 no.
Primary composite endpoint, % of patients (TTI ≥ 8 days, N = 2748): 5.7%
Primary composite endpoint, no. of patients (TTI ≥ 8 days, N = 2748): 77 no.
Resuscitated cardiac arrest, % of patients (TTI ≥ 8 days, N = 2748): 0.1%
Resuscitated cardiac arrest, no. of patients (TTI ≥ 8 days, N = 2748): 2 no.
Secondary Composite Endpoint, % of patients (TTI ≥ 8 days, N = 2748): 4.9%
Secondary Composite Endpoint, no. of patients (TTI ≥ 8 days, N = 2748): 67 no.
Stroke, % of patients (TTI ≥ 8 days, N = 2748): 0.1%
Stroke, no. of patients (TTI ≥ 8 days, N = 2748): 2 no.
Urgent hospitalization for angina requiring coronary revascularization, % of patients (TTI ≥ 8 days, N = 2748): 1.1%
Urgent hospitalization for angina requiring coronary revascularization, no. of patients (TTI ≥ 8 days, N = 2748): 15 no.
All Coronary Revascularizations, HR (95% CI) (TTI ≥ 8 days): 0.81 (0.59-1.10); p = 0.172
All-cause death, HR (95% CI) (TTI ≥ 8 days): 0.90 (0.53-1.51); p = 0.684
MI, HR (95% CI) (TTI ≥ 8 days): 0.93 (0.64-1.35); p = 0.710
Primary composite endpoint, HR (95% CI) (TTI ≥ 8 days): 0.82 (0.61-1.11); p = 0.200
Resuscitated cardiac arrest, HR (95% CI) (TTI ≥ 8 days): 1.02 (0.14-7.22); p = 0.986
Secondary Composite Endpoint, HR (95% CI) (TTI ≥ 8 days): 0.92 (0.66-1.28); p = 0.629
Stroke, HR (95% CI) (TTI ≥ 8 days): 0.19 (0.04-0.84); p = 0.029
Urgent hospitalization for angina requiring coronary revascularization, HR (95% CI) (TTI ≥ 8 days): 0.61 (0.32-1.16); p = 0.131
Time to first positively adjudicated primary endpoint, HR (95% CI) ([0-4] days, adjusted Cox model): 0.58 (0.36; 0.89)
Time to first positively adjudicated primary endpoint, HR (95% CI) ([0-4] days, adjusted Cox model, listed as colchicine): 0.58
Time to first positively adjudicated primary endpoint, HR (95% CI) ([0-4] days, basic Cox model): 0.57 (0.37; 0.87)
Time to first positively adjudicated primary endpoint, HR (95% CI) ([0-5] days, adjusted Cox model, listed as colchicine): 0.68 (0.45-1.02)
Time to first positively adjudicated primary endpoint, HR (95% CI) ([0-5] days, basic Cox model): 0.67 (0.45; 1.01)
Time to first positively adjudicated primary endpoint, HR (95% CI) ([5-20] days, adjusted Cox model): 0.84 (0.64; 1.11)
Time to first positively adjudicated primary endpoint, HR (95% CI) ([5-20] days, basic Cox model): 0.83 (0.63; 1.09)
Time to first positively adjudicated primary endpoint, HR (95% CI) ([6-30] days, adjusted Cox model): 0.35 (0.60, 1.05)
Time to first positively adjudicated primary endpoint, HR (95% CI) ([6-30] days, basic Cox model): 0.78 (0.59; 1.03)
reduction in the risk of the composite primary endpoint (colchicine initiated between days 0 and 3, vs placebo): 48%
Positively adjudicated primary endpoint No, % of patients [2]: (95.6%)
Positively adjudicated primary endpoint No, no. of patients [2]: 734 no.
Positively adjudicated primary endpoint Yes, % of patients [2]: (4.4%)
Positively adjudicated primary endpoint Yes, no. of patients [2]: 34 no.
Positively adjudicated primary endpoint No, % of patients [3]: (95.3%)
Positively adjudicated primary endpoint No, no. of patients [3]: 819 no.
Positively adjudicated primary endpoint Yes, % of patients [3]: (4.7%)
Positively adjudicated primary endpoint Yes, no. of patients [3]: 40 no.
Positively adjudicated primary endpoint No, % of patients [4]: (94.1%)
Positively adjudicated primary endpoint No, no. of patients [4]: 1463 no.
Positively adjudicated primary endpoint Yes, % of patients [4]: (5.9%)
Positively adjudicated primary endpoint Yes, no. of patients [4]: 91 no.
Positively adjudicated primary endpoint No, % of patients [5]: (94.2%)
Positively adjudicated primary endpoint No, no. of patients [5]: 1378 no.
Positively adjudicated primary endpoint Yes, % of patients [5]: (5.8%)
Positively adjudicated primary endpoint Yes, no. of patients [5]: 85 no.
reduction of secondary efficacy endpoint (CV death, resuscitated cardiac arrest, MI or stroke) (early initiation of low-dose colchicine): 45%
